In patent US9949980B2, “Drugs to prevent HPV infection” (Wisconsin Alumni Research Foundation, priority 2008, dated 2018):
pIC50: −log10 of the molar value. “Also recorded” adds a separate entry of the source.

Legend:
HPV16 pseudoviruses = experiment: Virus particle subcellular localization, fluorescently labeled HPV16 pseudovirus; type: cell-based; conditions: 24 hours post infection
Experimental: FIG. 6. Localization of HPV16 pseudovirions 24 hours post infection. Shown are representative confocal images of cells exposed to cyberXX-labeled HPV16 pseudovirus in the absence (FIG. 6B) or presence of Compound 13 (FIG. 6C) and Compound 14 (FIG. 6D). FIG. 6A is a mock infection negative control. Nuclei are stained.
Mechanism of action of Compounds 13 and 14. To begin to assess the mechanism by which Compounds 13 and 14 inhibit HPV infection, we performed fluorescent microscopy studies on cells treated or not treated with Compounds 13 and 14 that were exposed to HPV16 pseudoviruses in which the encapsidated DNA was labeled with a fluorescent intercalating agent. […] At 24 hours post infection we observed a typical perinuclear staining for the fluorescently labeled HPV16 pseudoviruses in both the untreated and drug treated cells.
Virus particle sub cellular localization studies: A target DNA was labeled with Syto-14 (Invitrogen, 25 NM) in 293FT cells before virus was being packaged. HaCaT cells were infected with the labeled HPV pseudovirus for 24 hours, harvested, and fixed with 1% formaldehyde for 30 minutes, followed by permeabilization with 0.2% Triton X-100 for 10 minutes. Cells were blocked with Image-IT FX Signal Enhancer (Invitrogen) for 30 minutes and incubated with rabbit anti-lamin B1 (ab16048, Abcam) antibodies. […] Virus localization was determined by fluorescence.

HPV16 pseudovirus [1] = experiment: microbe, parasite or virus in culture; type: cell-based; conditions: Human papillomavirus 16, HaCaT, read-out: IC50, HPV16 pseudovirus infection
Source text: FIG. 2. Dose dependence inhibition of HPV16 pseudovirus infection in a human keratinocyte cell line (HaCaT). Graphed are the dose-dependent effects of lead compounds shown in Table 2 on the efficiency of infection by HPV16 pseudovirus scored by measuring luciferase reporter activity (squares) as well as their effects on cell viability (circles).
All but one of these compounds (6 is […]) were repurchased and subjected to a tertiary screen performed in the human keratinocyte cell line, HaCaT, and using HPV16 pseudoviruses encoding a third reporter gene, firefly luciferase, transcribed from a different, E1a, promoter.
The infectivity assay was repeated at least twice and each assay was performed in replicate (n≥3).
At 4 hours prior to exposure of cell to pseudoviruses, compounds were added to plates in 1% DMSO final concentration at the indicated amounts. Four hours later, 10 multiplicity of infection (M.O.I.) units of HPV16 pseudovirus carrying the plasmid LucF was added to the cells. 72 hours later, cells were lysed and luciferase assays performed using the Luciferase Assay System (Promega Cat. #E1501). For infection studies with HPV11 and HPV31 pseudoviruses, 200 virus genome equivalents (vge) of virus per cell were used. Cell viability was assessed in parallel plates by Luminescent Cell Viability Assay (Promega Cat. #G7571).

HPV16 virus = experiment: Wild type HPV16 infection in 293T cells, early viral gene expression by real time PCR; type: cell-based; conditions: 5 to 10 μM (FIG. 3: 10 μM), 48 hours post infection
Experimental: FIG. 3. Inhibition of infection by HPV 16 virus. Shown is the relative efficiency of infection by HPV16 virus in 293T cells as scored by quantifying early viral transcription using real time PCR for E2 (dark grey bars), E5 (white bars) and E7 (light grey bars) containing mRNAs at 48 hours post-infection in the absence (DMSO—vehicle only, values set at 100%) or the presence of the indicated compound (10 μM concentration). Data points shown are the average of triplicate sample values. The dotted line indicates the normalized value for no drug (set as 100% infection value).
The 21 selected compounds were also tested for their ability to inhibit infection by bonafide HPV16 in 293T cells by measuring early viral gene expression by real time PCR at 48 hours post infection (FIG. 3) after treatment of the cell with 5 to 10 μM of each compound. Consistently with the data of reporter gene assays, HPV early gene expression was inhibited by Compounds 4, 13, 14, 18 and 20. Given the large differences in IC50 and CD50, and the reproducible capacity to inhibit infection by HPV16 pseudovirus and HPV16 virus in different cell types, Compounds 13 and 14 were selected for further analysis.
After 2 day infection, total RNA was isolated from infected cell lysate and treated with DNase I (Promega) as previously. (Pyeon, D. et al., Establishment of human papillomavirus infection requires cell cycle progression, PLos Pathog. 2009 February; 5(2):e1000318. Epub 2009 Feb. 27). Complementary DNA (cDNA) was synthesized from the normalized total RNA with the SuperScript cDNA synthesis kit (Invitrogen). All oligonucleotide primers (0.5 μM) for PCR are previously published (Pyeon D. et al., Production of infectious human papillomavirus independently of viral replication and epithelial cell differentiation, Proc. Nat'l Acad. Sci. USA, 2005 Jun. 28; 102(26):9311-6, Epub 2005 Jun. 15) or listed in Table 2.
Conventional PCR was performed with Taq DNA polymerase (Promega) and the following cycle: denaturation at 94° C. for 5 min, 42 cycles of 94° C. for 30 sec., 55° C. for 1 min., and 72° C. for 1 min., followed by extension at 72° C. for 7 min. Final products were analyzed by 1% agarose gel electrophoresis and ethidium bromide staining. Quantitative RT-PCR was performed using QuantiTect SYBR green PCR kit (Qiagen) with the following cycle: denaturation at 95° C. for 5 min. and 40 cycles of 95° C. for 30 sec., 55° C. for 30 sec., and 72° C. for 30 sec.

HPV16 pseudovirus [2] = experiment: Luciferase assay: HPV16 pseudovirus with renilla luciferase reporter (HPV16wpA-RL); conditions: renilla luciferase reporter behind HPV16 promoter
Experimental: The protocol for the secondary screen was identical to that of the primary screen with the exception that all volumes were scaled up by a factor of four. RL activity was measured using the Renilla Luciferase Assay System (Promega).

| Compound | Step at which the compound inhibits infection (entry of labeled pseudovirus) (HPV16 pseudoviruses) | pIC50 (HPV16 pseudovirus [1]) | Inhibition of HPV16 early gene expression (E2, E5, E7 mRNAs) (HPV16 virus) | Luciferase assay RL % Average (HPV16 pseudovirus [2]) [%] |
| --- | --- | --- | --- | --- |
| CCCn1c2ccccc2c2nnc(SC(CC)C(=O)Nc3ccc(Cl)cn3)nc21 (centres unmarked) [Compound 13, N-(5-chloro-2-pyridinyl)-2-[(5-propyl-5H-[1,2,4]triazino[5,6-b]indol-3-yl)thio]butanamide] | function post-entry | 6.10 | reproducible and significant inhibition; also recorded: inhibited | 150.17 |
| Cc1cc(C(c2ccc(F)cc2)c2cc(C)c(NC(=O)c3ccccc3)c(C)c2)cc(C)c1NC(=O)c1ccccc1 [Compound 14, N,N′[[(4-fluorophenyl)methylene]bis(2,6-dimethyl-4,1-phenylene)]dibenzamide] | function post-entry | 6.70 | reproducible and significant inhibition; also recorded: inhibited | 37.54 |
